# System: major neurosurgery patients
# Test: Aortic Pressure/Flow loop parameters before (T0) and at peak effect (T1) of a vasoconstrictor bolus in anesthetized patients
# Type: in vivo, human
# Parameters: S1, Base / S2, Base / S3, Base / Alpha, Base / Beta, Base / Gamma, Base / Alpha, Variations (Diff) / Beta, Variations (Diff) / Gamma, Variations (Diff) / S1, Variations (Diff) / S2, Variations (Diff) / S3, Variations (Diff): unit not given here
# Settings: for S2/Stot, Base / Alpha, Base / Beta, Base / Gamma, Base / S1, Base / S2, Base / S3, Base / S tot, Base: Base (T0, before injection); for Alpha, Base / Beta, Base / Gamma, Base: P/F loop angle; for S1, Base: P/F loop surface area S1; for S2, Base: P/F loop surface area S2; for S3, Base: P/F loop surface area S3; for Alpha, Peak / Beta, Peak / Gamma, Peak / S1, Peak / S2, Peak / S2/Stot, Peak / S3, Peak: Peak effect (T1) after peripheral venous bolus; for change in surface areas (Stot, S1, S2, S3) and angles (alpha, beta and gamma): before and after vasoconstriction, predominantly; for S tot, Base / S tot, Peak: total surface area of P/F loop; for S tot, Peak: Peak effect (T1) after peripheral venous bolus (9 mg Ephedrine, 50 μg Neophenylephrine or 5 μg Noradrenaline)
# Text: 1.1 Parameters Measured • The Pressure signal is collected in mmHg (FIG. 2), by means of a radial or femoral arterial catheter. • The esophageal Doppler signal giving the aortic flow in ml/s (FIG. 2) is collected via the Deltex® combi Q monitor. • The Pressure/Flow loop is constructed heart beat by heart beat with the simultaneous values of aortic flow on the x-axis and of pressure on the y-axis.
# 1.2 Description of the Various Parameters Resulting from the Aortic Pressure/Flow Loop: • the various specific points of the loop (FIG. 3-4): • A: diastolic pressure: the flow is zero before the beginning of systole. • B: maximum flow. • C: maximum pressure (systolic pressure). • D: dicrotic pressure: pressure at closing of the aortic valves: flow at 0, beginning of diastole. • The various specific straight lines of the loop: • straight line passing through points A and B: straight line between the beginning of the cycle and the point where the flow rate is at the maximum. • straight line passing through points A and C: straight line between the beginning of the cycle and the point where the pressure is at the maximum. • The various specific surface areas of the loop (FIG. 5): • Stot: total surface area of the Pressure/Flow loop. • S1: surface area between the lower part of the curve and the straight line (AB). • S2: surface area of the loop included between the two straight lines (AB) and (AC). • S3: surface area of the loop included between the straight line (AC) and the upper edge of the loop. • The various angles of the loop (FIG. 6): • Alpha: angle between the horizontal passing through point A and the straight line (AB). • Beta: angle between the horizontal passing through point A and the straight line (AC). • Gamma: angle between the two straight lines (AB) and (AC).
# The study was carried out in the operating theatre on major neurosurgery patients, after agreement from the Ethics Committee (CE SRLF 11-356) and obtaining of informed consent. In addition to the standard monitoring, a device for simultaneous invasive measurement of arterial pressure and measurement of cardiac output by trans-esophageal Doppler (CombiQ®, Deltex Medical) was set out after induction of general anesthesia. Moreover, in order to have a reflection of arterial elastance and of arterial stiffness, an arterial tonometer (SphygmoCor®, AtCor Medical) was used to obtain the curve of central arterial pressure and the arterial stiffness indices. This device is currently the reference for quantifying arterial stiffness (represented by the augmentation index: Aix, FIG. 11) and monitors its evolution as a function of vasoactive therapies.
# Patients having episodes of decrease in arterial pressure (decrease of 20% compared with the target pressure) and requiring the administration of a vasoconstrictor were included. Before each injection of […] (T0) and then at the time of the peak effect of the vasopressin (T1) the Pressure/Flow loops were plotted and the parameters derived from the loop were calculated. At the same time, using the SphygmoCor®, the augmentation index (Aix) and the arterial elastance (Ea) were recorded.
# Depending on the anesthetists' choice, the patients received either 9 mg of Ephedrine, or 50 μg of Neophenylephrine, or 5 μg of Noradrenaline administered via a peripheral venous route.
# Statistical Analysis: • search for the correlation between the Aix measured by SphygmoCor®, with the parameters of the P/F loop at T0 and at T1. • comparison of the evolution of the parameters of the P/F loop as a function of the use of Ephedrine, of Neosynephrine or of Noradrenaline. • comparison of the parameters of the P/F loop at T0 between the patients having cardiovascular risk factors and the patients not having risk factors. • study of the variations of the parameters of the P/F loop before and after vasoconstriction as a function of the patient's susceptibility to illness and of the type of vasoconstrictor used.
Structure (SMILES),"S2/Stot, Base","Alpha, Base","Beta, Base","Gamma, Base","S1, Base","S2, Base","S3, Base","Alpha, Peak","Beta, Peak","Gamma, Peak","S1, Peak","S2, Peak","S2/Stot, Peak","S3, Peak","change in surface areas (Stot, S1, S2, S3) and angles (alpha, beta and gamma)","S tot, Base","S tot, Peak",further results
CN[C@@H](C)[C@H](O)c1ccccc1 [Ephedrine],34.2,7.4,10.9,1.8,1997,1709,1658.8,9.5,13.3,2.4,2722,2694.4,32.6,2242.5,significant increase,4889,6974,
CNC[C@H](O)c1cccc(O)c1 [Neosynephrine],26.9,8.5,11.2,2.1,2028,1255.2,1851.1,10.6,16.2,5.4,2516,2624.7,31.2,2452.2,significant increase,5344,7412,"increase of the beta and gamma angles (FIG. 13, for similar pressure increases induced by the vasoconstrictors): significantly more than Noradrenaline and Ephedrine; Alpha, Variations (Diff) (NEOSYNEPHRINE vs NORADRENALINE): −0.02; Beta, Variations (Diff) (NEOSYNEPHRINE vs NORADRENALINE): 2.55; Gamma, Variations (Diff) (NEOSYNEPHRINE vs NORADRENALINE): 2.59; S1, Variations (Diff) (NEOSYNEPHRINE vs NORADRENALINE): 266.01; S1/Stot %, Variations (Diff) (NEOSYNEPHRINE vs NORADRENALINE): −4.61%; S2, Variations (Diff) (NEOSYNEPHRINE vs NORADRENALINE): 615.97; S2/Stot %, Variations (Diff) (NEOSYNEPHRINE vs NORADRENALINE): 6.6%; S3, Variations (Diff) (NEOSYNEPHRINE vs NORADRENALINE): 221.27; S3/Stot %, Variations (Diff) (NEOSYNEPHRINE vs NORADRENALINE): −2.13%; S tot, Variations (Diff) (NEOSYNEPHRINE vs NORADRENALINE): 1072.27; increase with respect to Stot, beta, gamma and S2 (absolute and S2/Stot) (compared with the other two vasoconstrictors): greater increase than the other two vasoconstrictors; effect on ventricular-aortic coupling (reflected by greater increase in S2 and in beta and gamma angles): detrimental effect"
NC[C@H](O)c1ccc(O)c(O)c1 [Noradrenaline],26.4,8.5,11.5,2.2,1775,1215.9,1860.8,10.6,14.2,3.2,1963.2,1957.4,27.9,2311.5,significant increase,5291,6582,
